Reference: patent US7951385B2, “Probiotic strain and antimicrobial peptide derived therefrom” (Cipla Medpro Research and Development (Pty) Ltd., priority 2006, dated 2011)

What was measured:
[1] = system: pathogens (Streptococcus pneumoniae, Klebsiella pneumoniae, middle ear isolates); test: Cell lysis / growth inhibition of pathogens in BHI broth; assay type: cell-based; conditions: peptide added at mid-exponential phase, BHI broth (FIGS. 15 to 23)
Experimental: A 0.2% (v/v) inoculum of an overnight pathogen was inoculated into BHI broth. Peptide ST4SA was added to each pathogen at mid-exponential phase.

Pseudomonas auringinosa = test: Extracellular DNA after treatment of pathogens with peptide ST4SA; assay type: cell-based; conditions: Pseudomonas auringinosa E
Text: (§1) Further evidence of cell membrane damage and leakage of cellular constituents was obtained by testing for extracellular DNA and extracellular β-galactosidase activity.

Klebsiella pneumoniae [2] = test: as above; assay type: cell-based; conditions: Klebsiella pneumoniae 30
Text: as §1

[3] = system: Middle ear isolates (unknown); test: as above; assay type: cell-based
Text: as §1

Streptococcus pyogenes [4] = test: as above; assay type: cell-based; conditions: Streptococcus pyogenes 20
Text: as §1

Lactobacillus casei LHS = test: Effect of enzymes, temperature, pH and detergents on antimicrobial activity of peptide ST4SA; assay type: physicochemical; set-up: key: − = no activity; + = activity zones of at least 5 mm in diameter
Experimental: Antimicrobial activity was expressed as arbitrary units (AU) per ml cell-free supernatant. One AU is defined as the reciprocal of the highest dilution showing a clear zone of growth inhibition and is calculated as follows:
a^b×100, where “a” represents the dilution factor and “b” the last dilution that produces an inhibition zone of at least 2 mm in diameter. Activity is expressed per ml by multiplication with 100. Lactobacillus casei LHS was used as indicator strain.
The cells were harvested (8 000×g, 4° C., 15 min) and the cell-free supernatants adjusted to pH 6.0 with 6M NaOH. One ml of each supernatant was treated with catalase (Boehringer Mannheim) at 0.1 mg/ml (final concentration), Proteinase K (Roche, Indianapolis, Ind., USA), pronase, papain, pepsin and trypsin (Boehringer Mannheim GmbH, Germany), at 1 mg/ml and 0.1 mg/ml (final concentration), respectively. After incubation the enzymes were heat-inactivated (3 min at 100° C.) and tested for antimicrobial activity, as described before.
Aliquots of peptide ST4SA were exposed to heat treatments of 30° C., 60° C. and 100° C. for 10, 30 and 90 min, respectively, and 121° C. for 20 min (Table 3). The samples were then tested for antimicrobial activity, as described before.
In a separate experiment, samples of peptide ST4SA were adjusted to pH values ranging from 2-12, incubated at 37° C. for 30 min, neutralised to pH 7, and then tested for antimicrobial activity (Table 3).

[5] = system: tumour necrosis factor (TNF), interferon γ (IFN); test: Immune modulation (cytokine RNA hybridization, ileum and colon); assay type: in vivo, rat
Experimental: Total RNA was extracted from the frozen ileum and colon samples using Trizol reagent. The concentration of RNA was determined by measuring the absorbance at 260 nm using a Nanodrop spectrophotometer, after DNase treatment had been completed. Each RNA sample was diluted to a concentration of 42 ng/μl. A total of 5 μg of each sample was transferred in triplicate onto a nylon membrane using a slot blot apparatus. The membrane was then probed with either a tumour necrosis factor (TNF), interferon γ (IFN) or β-actin DNA probe amplified from rat genomic DNA and labeled with DIG. The membrane was exposed to X-ray film overnight and developed.

Streptococcus pneumoniae = test: β-galactosidase leakage after treatment of pathogens with peptide ST4SA; assay type: cell-based
Text: as §1

Enterococcus spp. HKLHS = test: as above; assay type: cell-based; conditions: Control organism Enterococcus spp. HKLHS
Text: as §1

Staphylococcus aureus = test: as above; assay type: cell-based; conditions: Staphylococcus aureus 36
Text: as §1

Klebsiella pneumoniae [6] = test: as above; assay type: cell-based; conditions: Klebsiella pneumoniae 30
Text: as §1

[7] = system: Middle ear isolates (unknown); test: as above; assay type: cell-based
Text: as §1

Streptococcus pyogenes [8] = test: as above; assay type: cell-based; conditions: Streptococcus pyogenes 20
Text: as §1

pathogens tested = test: Adhesion of peptide ST4SA to pathogens (summary); assay type: binding; conditions: conclusion for the pathogens tested (Table 7)
Text: Binding of peptide ST4SA to target cells is important to ensure penetration of the peptide. The ability of peptide ST4SA to adhere to pathogens was studied and the results were expressed as a percentage binding to the pathogens (Table 7). […] Adhesion of peptide ST4SA to the target cell leads to penetration and disruption of the cell membrane (FIG. 14).

[9] = system: pathogenic bacteria (Listeria, Bacillus and Staphylococcus); test: Challenge study with red meat as model, PE-bound peptide; conditions: surface (PE)-bound peptide
Experimental: Peptide ST4SA adhered strongly, and it would seem irreversibly, to the PE film. Release of peptide ST4SA from the surface of PE was only possible after 1 h with a current of 30 mA. […] The encapsulation of the antimicrobial peptide in the polymer leads to a slow release of the antimicrobial peptide and an extended period of treatment of a microbial infection.

[10] = system: Lactobacillus sakei DSM 20017; test: Blocking of the Lipid II target site with vancomycin; assay type: cell-based; conditions: L. sakei DSM 20017, FIG. 26
Text: To test this hypothesis, the Lipid II target site of Lactobacillus sakei DSM 20017 (sensitive to peptide ST 4SA) was blocked with vancomycin (see schematic presentation, FIG. 26). Vancomycin adheres to the amino acid side chain of the Lipid II molecule, which would, theoretically, prevent peptide ST4SA from binding to the same site (that is if Lipid II acts as receptor). […] The fact that peptide ST4SA binds to more than one anchoring site on the sensitive cell may explain why it has such a broad spectrum of antimicrobial activity (inhibitory to Gram-positive and Gram-negative bacteria).

## Peptide ST4SA: broad-spectrum antibacterial peptide (bacteriocin) produced by Enterococcus mundtii strain ST4SA, SEQ. ID. NO. 12 (MSQVVGGKYYGNGVSCNKKGCSVDWGKAIGIIGNNSAANLATGGAAGWKS; ENTEROCOCCUS MUNDTII ST4SA)
[1]
  Mode of action on pathogens: acted in a bactericidal manner against most pathogens
Pseudomonas auringinosa
  DNA-leakage (O.D. readings at 260 nm): 0.187
Klebsiella pneumoniae [2]
  DNA-leakage (O.D. readings at 260 nm): 1.01
[3]; Middle ear isolate 40
  DNA-leakage (O.D. readings at 260 nm): 0.801
[3]; Middle ear isolate BW
  DNA-leakage (O.D. readings at 260 nm): 1.186
[3]; Middle ear isolate DW
  DNA-leakage (O.D. readings at 260 nm): 1.153
[3]; Middle ear isolate F
  DNA-leakage (O.D. readings at 260 nm): 1.428
[3]; Middle ear isolate GW
  DNA-leakage (O.D. readings at 260 nm): 0.751
[3]; Middle ear isolate HW
  DNA-leakage (O.D. readings at 260 nm): 1.559
[3]; Middle ear isolate K
  DNA-leakage (O.D. readings at 260 nm): 0.455
[3]; Middle ear isolate L
  DNA-leakage (O.D. readings at 260 nm): 0.592
[3]; Middle ear isolate M
  DNA-leakage (O.D. readings at 260 nm): 0.326
Streptococcus pyogenes [4]
  DNA-leakage (O.D. readings at 260 nm): 0.930
Lactobacillus casei LHS; Detergents (1%): SDS
  Antimicrobial activity after treatment: + (+ = activity zones of at least 5 mm in diameter)
Lactobacillus casei LHS; Detergents (1%): Triton X-100
  Antimicrobial activity after treatment: + (+ = activity zones of at least 5 mm in diameter)
Lactobacillus casei LHS; Detergents (1%): Triton X-114
  Antimicrobial activity after treatment: −
Lactobacillus casei LHS; Detergents (1%): Tween 20, Tween 80
  Antimicrobial activity after treatment: + (+ = activity zones of at least 5 mm in diameter)
Lactobacillus casei LHS; Detergents (1%): urea
  Antimicrobial activity after treatment: + (+ = activity zones of at least 5 mm in diameter)
Lactobacillus casei LHS; EDTA: 0.1 mM, 1.0 mM, 2.0 mM
  Antimicrobial activity after treatment: + (+ = activity zones of at least 5 mm in diameter)
Lactobacillus casei LHS; Enzymes: Proteinase K
  Antimicrobial activity after treatment: −
Lactobacillus casei LHS; Enzymes: pepsin
  Antimicrobial activity after treatment: −
Lactobacillus casei LHS; Enzymes: pronase
  Antimicrobial activity after treatment: −
Lactobacillus casei LHS; Enzymes: α-amylase
  Antimicrobial activity after treatment: + (+ = activity zones of at least 5 mm in diameter)
Lactobacillus casei LHS; Heat: 30, 60, 100° C. for 10 min
  Antimicrobial activity after treatment: + (+ = activity zones of at least 5 mm in diameter)
Lactobacillus casei LHS; Heat: 30, 60, 100° C. for 30 min
  Antimicrobial activity after treatment: + (+ = activity zones of at least 5 mm in diameter)
Lactobacillus casei LHS; Heat: 30, 60, 100° C. for 90 min
  Antimicrobial activity after treatment: + (+ = activity zones of at least 5 mm in diameter)
Lactobacillus casei LHS; Heat: 121° C. for 20 min
  Antimicrobial activity after treatment: −
Lactobacillus casei LHS; pH 2.0-12.0, 37° C. for 30 min, neutralised to pH 7
  Antimicrobial activity after treatment: + (+ = activity zones of at least 5 mm in diameter)
Lactobacillus casei LHS; proteolytic enzyme papain
  Antimicrobial activity after treatment: inactivated
Lactobacillus casei LHS; proteolytic enzyme trypsin
  Antimicrobial activity after treatment: inactivated
[5]
  Cytokine (TNF or IFN) expression: did not indicate any cytokine (TNF or IFN) expression
Streptococcus pneumoniae; Streptococcus pneumoniae 27
  β-galactosidase recorded at OD420: No leakage
Streptococcus pneumoniae; Streptococcus pneumoniae 29
  β-galactosidase recorded at OD420: No leakage
Streptococcus pneumoniae; Streptococcus pneumoniae D
  β-galactosidase recorded at OD420: No leakage
Enterococcus spp. HKLHS
  β-galactosidase recorded at OD420: No leakage
Staphylococcus aureus
  β-galactosidase recorded at OD420: No leakage
Klebsiella pneumoniae [6]
  β-galactosidase recorded at OD420: No leakage
[7]; Middle ear isolate BW
  β-galactosidase recorded at OD420: 0.370
[7]; Middle ear isolate DW
  β-galactosidase recorded at OD420: 0.293
[7]; Middle ear isolate F
  β-galactosidase recorded at OD420: 0.318
[7]; Middle ear isolate GW
  β-galactosidase recorded at OD420: 0.373
[7]; Middle ear isolate HW
  β-galactosidase recorded at OD420: 0.235
[7]; Middle ear isolate K
  β-galactosidase recorded at OD420: No leakage
[7]; Middle ear isolate L
  β-galactosidase recorded at OD420: No leakage
[7]; Middle ear isolate M
  β-galactosidase recorded at OD420: No leakage
Streptococcus pyogenes [8]
  β-galactosidase recorded at OD420: No leakage
Pathogens tested
  percentage binding to the pathogens: at least 75%
[9]
  Growth of pathogenic bacteria on red meat: prevented the growth of pathogenic bacteria
[10]
  Effect on target cells after blocking Lipid II with vancomycin: resulted in growth inhibition
